Test results taken from article PMC4558462, “A new small molecule inhibitor of soluble guanylate cyclase” (Bioorganic & Medicinal Chemistry, 2015).

Biological target: T1, sGC (Homo sapiens, UniProt Q02108+Q02153)
T1 sequence (Q02108 1-690): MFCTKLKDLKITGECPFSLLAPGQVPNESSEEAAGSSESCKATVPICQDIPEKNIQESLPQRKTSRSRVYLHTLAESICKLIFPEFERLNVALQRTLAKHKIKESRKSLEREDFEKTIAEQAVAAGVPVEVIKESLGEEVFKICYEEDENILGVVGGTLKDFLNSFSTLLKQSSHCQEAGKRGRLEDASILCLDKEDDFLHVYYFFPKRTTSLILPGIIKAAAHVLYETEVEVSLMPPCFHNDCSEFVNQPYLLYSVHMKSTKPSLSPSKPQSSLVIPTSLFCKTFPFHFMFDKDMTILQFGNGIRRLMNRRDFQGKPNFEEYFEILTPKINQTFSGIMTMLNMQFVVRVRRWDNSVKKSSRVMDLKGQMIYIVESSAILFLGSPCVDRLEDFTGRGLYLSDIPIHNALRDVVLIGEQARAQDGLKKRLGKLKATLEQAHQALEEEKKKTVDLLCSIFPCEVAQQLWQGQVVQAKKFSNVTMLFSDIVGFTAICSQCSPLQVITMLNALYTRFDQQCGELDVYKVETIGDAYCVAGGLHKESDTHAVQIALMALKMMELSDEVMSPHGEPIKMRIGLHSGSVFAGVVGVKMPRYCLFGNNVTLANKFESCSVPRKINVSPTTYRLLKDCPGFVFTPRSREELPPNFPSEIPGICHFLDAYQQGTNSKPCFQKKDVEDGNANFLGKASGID
T1 sequence (Q02153 1-619): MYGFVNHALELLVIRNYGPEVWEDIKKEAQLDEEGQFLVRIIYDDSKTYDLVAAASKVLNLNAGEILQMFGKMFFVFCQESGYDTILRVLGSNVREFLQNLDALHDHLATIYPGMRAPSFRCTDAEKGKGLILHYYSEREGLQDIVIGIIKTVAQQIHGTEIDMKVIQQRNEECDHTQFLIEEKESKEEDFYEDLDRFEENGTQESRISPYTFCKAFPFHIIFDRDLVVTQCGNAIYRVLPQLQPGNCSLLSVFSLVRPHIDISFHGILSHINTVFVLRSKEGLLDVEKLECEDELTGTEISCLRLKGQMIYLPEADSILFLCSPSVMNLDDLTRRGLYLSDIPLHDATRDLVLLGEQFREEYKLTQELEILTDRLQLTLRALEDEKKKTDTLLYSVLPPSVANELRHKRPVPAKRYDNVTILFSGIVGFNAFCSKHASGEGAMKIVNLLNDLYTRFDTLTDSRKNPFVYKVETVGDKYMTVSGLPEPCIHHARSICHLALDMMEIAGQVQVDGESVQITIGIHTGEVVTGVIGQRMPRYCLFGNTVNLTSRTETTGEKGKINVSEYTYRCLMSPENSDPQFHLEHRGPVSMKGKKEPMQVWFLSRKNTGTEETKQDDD
Assay: Earlier laboratory observation of effect on sGC (data not shown)
Type: biochemical
Conditions: low millimolar concentrations
Description: In the course of studies in our laboratory we observed activation of sGC with the anti-epileptic drug lamotrigine 2 and inhibition with lamotrigine analogues sipatrigine 3 and 4, all at low millimolar concentrations (data not shown) (Fig. 1). These compounds were used as the starting point for a screening study to find new inhibitors of sGC. The strategy was to conduct several rounds of similarity searching and screening to identify the best inhibitors. Some synthetic studies were conducted on the best hit to explore the structure–activity relationships.

Structure (SMILES) | effect on sGC
Nc1nnc(-c2cccc(Cl)c2Cl)c(N)n1 [Compound 2, lamotrigine] | activation
Nc1nc(N)c(-c2cc(Cl)cc(Cl)c2Cl)c(C(F)(F)F)n1 [Compound 4] | inhibition
CN1CCN(c2ncc(-c3cc(Cl)cc(Cl)c3Cl)c(N)n2)CC1 [Compound 3, sipatrigine] | inhibition
